*1 amine or outer side, *2 acyl side, *3 side chain or, on linkers, in order; H or OH if unused. Where a SMILES comes first, the peptide text is derived from it. Bridges are numbered along the chain shown (N, C = ends). mXylylene = c1cc(C[*:1])cc(C[*:2])c1
Legend:
[1] = target: T1, rabbit LDH5 (rLDH5) (Oryctolagus cuniculus, UniProt P13491); test: Denaturation assay: rLDH5 fluorescence recovery after acidic exposure; format: biochemical; settings: 200 nM rLDH5, 50 μM peptide, pH 5 then neutral pH
T1 construct: purchased Sigma-Aldrich
Description: Rabbit LDHA commercial solution (Sigma-Aldrich®) in an ammonium sulfate suspension (pH-7, 3.2 M) was first diluted to 1 mg/ml in a solution of NaCl 200 mM and then dialyzed at 4° C. 2×2 h against 200 mM NaCl. The stock solution of 1 mg/ml was then diluted to 30 μg/ml (800 nM) in NaCl 20 0 mM to give the assay solution. Assay solution was mixed 1:1 with acetate-chloride buffer (20 mM Acetic acid/Acetate, 180 mM NaCl, 1 mM DTT pH 5) and stored on ice for 30 minutes. Samples were then removed from ice and let warm up for 2 minutes. The acidic solution was then diluted 1:1 with a 250 mM phosphate buffer (pH 7.6) containing or not the inhibitory peptide to yield a 7.5 μg/ml (200 nM) final concentration of re-associating LDHA. Samples of the resulting solutions were then subjected to kinetic experiments of the recovery of intrinsic fluorescence (Exc=286 nm, Em=350 nm, 10′, rt).
An experiment was thus designed to follow the recovery of LDH tetramers after a dissociation step initiated by acidic conditions. […] Monitoring of the rLDH5 tetrameric state was performed by following its intrinsic tryptophan fluorescence: 6 tryptophan residues can be found in each rLDHA monomer, three of them being located at the dimer-dimer interface. As the tryptophan quantum yield decreases in a polar environment, dimeric LDHs show very weak tryptophan fluorescence compared to the tetrameric form. […] Such decay can be compared to the difference in tryptophan fluorescence between tetrameric LDH1 and dimeric LDHBtr.

[2] = target: T2, LDHBtr (Homo sapiens, UniProt P07195); test: NMR WaterLOGSY binding screening
T2 sequence (P07195 21-334): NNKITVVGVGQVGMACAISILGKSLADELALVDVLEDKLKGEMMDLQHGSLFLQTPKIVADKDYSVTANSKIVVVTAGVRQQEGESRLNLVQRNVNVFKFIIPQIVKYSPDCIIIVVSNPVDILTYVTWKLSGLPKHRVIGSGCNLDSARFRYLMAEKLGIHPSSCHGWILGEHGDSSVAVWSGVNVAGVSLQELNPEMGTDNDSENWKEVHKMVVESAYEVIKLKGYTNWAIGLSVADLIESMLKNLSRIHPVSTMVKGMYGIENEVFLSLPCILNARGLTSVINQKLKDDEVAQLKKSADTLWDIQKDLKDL
Description: All experiments were acquired on a Bruker Ascend Avance III 600 MHz equipped with a broadband cryoprobe (Bruker® GmBH, Germany)
(§1) NMR WaterLOGSY was performed on samples prepared in 10% D2O buffer containing 50 mM sodium phosphate buffer, pH 7.6 and 100 mM NaCl. The concentration of LDH subunits was 15-20 μM. Ligand binding was detected using a NMR WaterLOGSY ephogsygpno.2 advance-version sequence with a […]. Water signal suppression was achieved using excitation sculpting scheme and a 50 ms spinlock was used to suppress protein background signal. For each experiment, 512 scans were collected to yield a 16K points FID. NMR WaterLOGSY intensity was corrected by plotting the intensity difference of the ligand NMR WaterLOGSY spectra recorded in the presence and absence of protein.
For NMR WaterLOGSY screening experiments a correction factor was applied to account for slight concentration variation between samples. To do so, 8 scans 1H NMR spectra with 50 ms spinlock were recorded before NMR WaterLOGSY experiments. The intensity ratio of the aliphatic region (0.700 ppm to 0.955 ppm) with and without protein was used as a correction factor to compare the NMR WaterLOGSY intensity of the polypeptides of interest with and without LDH subunits. An arbitrary threshold of 0.1, corresponding to a 10% decrease in the NMR WaterLOGSY signal intensity between the spectra with and without protein, was set to discriminate between binders and non-binders.

[3] = target: T2, LDHBtr; test: Microscale thermophoresis (MST), Example 1; format: binding
Description: (§2) MST measurements were performed on a Nanotemper Monolith NT.115 instrument (Nanotemper Technologies®, GmbH) using Red-dye-NHS fluorescent labeling. Each LDH (WT or truncated) sample, purified to homogeneity, was labeled with the Monolith RED-NHS 2nd generation labeling dye according to the supplied protocol (Nanotemper Technologies®, GmbH). Measurements were performed in 50 mM Na-Phosphate pH 7.6 and 100 mM NaCl containing 0.05% Tween-20 in premium treated capillaries (Nanotemper Technologies®, GmbH). The final concentrations of either labeled protein in the assay were 100 nM. The ligands (NADH and peptides) were titrated in 1:1 dilutions following manufacturer's recommendations. All binding reactions were incubated 5′ at room temperature after loading into capillaries. Experiments were performed in triplicates using 40% LED power and medium MST power, LaserOn time was 20 sec, Laser Off time 3 sec. Linear octapeptides were evaluated for their thermophoretic pattern.

[4] = target: T3, rabbit LDHA (LDH-M) (Oryctolagus cuniculus, UniProt P13491); test: Intrinsic fluorescence assay: recovery of tryptophan fluorescence after acidic dissociation, Example 1; format: biochemical; settings: pre-dissociation at pH 5.0, neutralization; LT018 50 μM, LB8 up to 100 μM
T3 construct: purchased Sigma-Aldrich
Description: Following described procedure; rabbit LDHA commercial solution in an ammonium sulfate suspension in (pH-7.0, 3.2 M) was first diluted to 1 mg/ml in a solution of NaCl 200 mM and then dialyzed at 4° C. 2×2 h against 200 mM NaCl. The stock solution of 1 mg/ml was then diluted to 30 μg/ml in NaCl 200 mM to give the assay solution.
Assay solution was mixed 1:1 with either an acetate-chloride buffer (20 mM Acetic acid/Acetate, 180 mM NaCl, pH 5.0) or phosphate buffer (250 mM phosphate pH 7.6). After storage at 4° C. for 30′, samples were removed and diluted 1:1,250 mM phosphate buffer (pH 7.6) to yield a 7.5 μg/ml final concentration of re-associating LDH-M.
Samples of the resulting solutions were then subjected to kinetic experiments of the recovery of intrinsic fluorescence (Exc=286 nm, Em=350 nm, 10′, rt). Full tryptophan fluorescence spectra were afterward recorded (Exc=286 nm, Em=320-400 nm, rt).
To confirm this hypothesis, experiments were therefore designed to follow the recovery of the LDH tetrameric form after a pre-dissociation initiated in slightly acidic conditions. Briefly, six tryptophan residues are found in the LDH structure, three of them being located at the dimer-dimer interface. As the tryptophan quantum yield decreases in polar environment, dimeric LDHs show very weak tryptophan fluorescence compared to tetrameric one. […] The recovery of fluorescence upon pH neutralization is therefore a direct measure of the tetramer re-association.

[5] = target: full length LDH1 enzyme (Homo sapiens, UniProt P07195); test: Biochemical/biophysical evaluation of interaction with full length tetrameric LDHB; format: binding
Chain of full length LDH1 enzyme (P07195 whole entry): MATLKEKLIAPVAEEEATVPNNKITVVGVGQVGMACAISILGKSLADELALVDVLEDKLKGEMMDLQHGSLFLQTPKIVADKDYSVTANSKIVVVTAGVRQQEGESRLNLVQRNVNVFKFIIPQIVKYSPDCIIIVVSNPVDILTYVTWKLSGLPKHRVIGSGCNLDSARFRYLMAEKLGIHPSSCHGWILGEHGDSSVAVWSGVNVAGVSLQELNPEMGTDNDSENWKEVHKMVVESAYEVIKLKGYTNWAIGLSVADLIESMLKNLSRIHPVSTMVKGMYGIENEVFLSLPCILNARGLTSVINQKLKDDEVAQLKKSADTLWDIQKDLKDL
Description: as §1
as §2, with “The ligands (NADH and peptides) were titrated in 1:1 dilutions following manufacturer's recommendations. All binding reactions were incubated 5′ at room temperature after loading into capillaries. Experiments were performed in triplicates using 40% LED power and medium MST power, LaserOn time was 20 sec, Laser Off time 3 sec.” left out

[6] = target: T4, human LDH5 (Homo sapiens, UniProt P00338); test: nanoDSF thermal denaturation of LDH5; format: binding; settings: nanoDSF
T4 construct: purchased Abnova

[7] = target: tetrameric LDH1 (Homo sapiens, UniProt P07195); test: Microscale thermophoresis (MST) on tetrameric LDH1; format: binding
Chain of tetrameric LDH1 (P07195 whole entry): as above
Description: (§3) MST measurements were performed on a Nanotemper Monolith NT.115 instrument (NanoTemper Technologies®) using Red-dye-NHS fluorescent labeling. Each LDH sample, purified to homogeneity, was labeled with the Monolith Red-dye-NHS 2nd generation labeling dye (NanoTemper Technologies®), according to the manufacturer's instructions. Measurements were performed in 50 mM sodium phosphate, pH 7.6, and 100 mM NaCl containing 0.05% Tween-20 in premium-treated capillaries (NanoTemper Technologies®). The final concentrations of either labeled protein in the assay were 100 nM. The ligands (NADH and peptides) were titrated in 1:1 dilutions following manufacturer's recommendations. All binding reactions were incubated for 5 min at room temperature after loading into capillaries. Experiments were performed in triplicates using 40% LED power, medium MST power, Laser On time 20 s and Laser Off time 3 s. Peptides were evaluated for their thermophoretic pattern, and Kd's were extracted from raw data at a 10 to 20 s MST on time according to manufacturer's instructions. Regarding interaction of 7 with LDH5, Kd was extracted from the raw fluorescence. A denaturation test was performed accordingly to manufacturer recommendation and excluded any nonspecific spectral interaction between 7 and the red-dye. […]

[8] = target: T5, tetrameric LDH5 (Homo sapiens, UniProt P00338); test: Microscale thermophoresis (MST) on tetrameric LDH5; format: binding
T5 construct: purchased Abnova
Description: as §3

[9] = target: human LDH1 (Homo sapiens, UniProt P07195); test: nanoDSF thermal denaturation of LDH1; format: binding; settings: nanoDSF
Chain of human LDH1 (P07195 whole entry): as above

[10] = linear peptides at 800 μM, LDHBtr 15 μM

| Compound | LDH5 fluorescence recovery after acidification [1] | Binding using WaterLOGSY (800 μM) [2, 10] | Kd ([3]; linear peptides, read-out: Kd using MST experiment) [µM] | recovery of fluorescence intensity after denaturation (LDH re-association) [4] | NMR WaterLOGSY signal / saturation transfer [2] | Interaction with full length LDH1 / competition with LDHB native arm [5] | Binding using WaterLOGSY (800 μM) ([2]; cyclic peptides at 800 μM) | increase in potency compared to LB8 ([3]; Kd by MST) [fold] | effect on LDH5 stability [6] | binding to tetrameric LDH1 [7] | binding to tetrameric LDH5 [8] | effect on LDH1 stability [9] |
| --- | --- | --- | --- | --- | --- | --- | --- | --- | --- | --- | --- | --- |
| CC[C@H](C)[C@H](NC(=O)[C@H](CC(C)C)NC(=O)[C@H](CCCCN)NC(=O)[C@H](CCC(=O)O)NC(=O)[C@H](CCCCN)NC(=O)[C@H](CC(C)C)NC(=O)[C@@H](NC(=O)[C@H](C)N)[C@@H](C)O)C(N)=O [LB8, ATLKEKLI] (H-ATLKEKLI-NH2; N-terminus assumed) | no effect | + (binders) | 1400 | no effects up to 100 μM | – | – | – | – | – | – | – | – |
| CC[C@H](C)[C@H](NC(=O)[C@H](CC(C)C)NC(=O)[C@H](CCCCN)NC(=O)[C@H](CCC(=O)O)NC(=O)[C@H](CCCCN)NC(=O)[C@H](CC(C)C)NC(=O)[C@@H](NC(=O)[C@H](C)N)[C@@H](C)O)C(=O)N[C@@H](C)C(=O)N1CCC[C@H]1C(=O)N[C@H](C(=O)N[C@@H](C)C(=O)N[C@@H](CCC(=O)O)C(=O)N[C@@H](CCC(=O)O)C(=O)N[C@@H](CCC(=O)O)C(=O)N[C@@H](C)C(=O)N[C@H](C(=O)N[C@H](C(=O)N1CCC[C@H]1C(N)=O)C(C)C)[C@@H](C)O)C(C)C [LB19, ATLKEKLIAPVAEEEATVP] (H-ATLKEKLIAPVAEEEATVP-NH2; N-terminus assumed) | – | + (binders) | – | – | positive signal | no interaction | – | – | – | – | – | – |
| CC[C@H](C)[C@H](NC(=O)[C@H](CC(C)C)NC(=O)[C@H](CCCCN)NC(=O)[C@@H]1CSCc2cccc(c2)CSC[C@H](N)C(=O)N[C@@H]([C@@H](C)O)C(=O)N[C@@H](CC(C)C)C(=O)N[C@@H](CCCCN)C(=O)N1)C(N)=O [LT018, CTLKCKLI] (H-CTLKCKLI-NH2; linker 1-5 via mXylylene; N-terminus assumed) | – | – | – | nicely interfered with the fluorescence recovery at 50 μM | intense saturation transfer | not able to compete with LDHB native arm | + (binders) | 30 | – | – | – | – |
| CC[C@H](C)[C@H](NC(=O)[C@H](CC(C)C)NC(=O)[C@H](CCCCN)NC(=O)[C@@H]1CSCc2cccc(c2)CSC[C@H](N)C(=O)N[C@@H]([C@@H](C)O)C(=O)N[C@@H](CC(C)C)C(=O)N[C@@H](CCCCN)C(=O)N1)C(N)=O [MP1, CTLKCKLI] (H-CTLKCKLI-NH2; linker 1-5 via mXylylene; N-terminus assumed) | significantly interfered | – | – | – | – | – | – | – | no effect up to 500 μM | did not demonstrated any binding | did not demonstrated any binding | no effect up to 500 μM |
| Ac-LIAPVAE-NH2 [LBc, LB19 central fragment evaluated as a negative control, reference compound] | no effect | − (non-binders) | – | no effect | not to demonstrate any appreciable saturation transfer | – | – | – | – | – | – | – |

Source: US20220289791A1, “LACTATE DEHYDROGENASE INHIBITOR POLYPEPTIDES FOR USE IN THE TREATMENT OF CANCER” (UNIVERSITÉ CATHOLIQUE DE LOUVAIN, priority 2019, published 2022)
